Source: ChEMBL document CHEMBL1201862, “PubChem BioAssay data set” (2004)
Active and inactive are the calls of the source.

Tests used:
[1] = biological target: T1, Polyadenylate-binding protein 1 (Homo sapiens, UniProt P11940); test: PABP1 MLLE–PAM2 interaction inhibitors, dose response, miRNA deadenylation inhibitor project, biochemical, fluorescence polarization, Cy5-PAM2 peptide, secondary (AID 602260); format: functional; conditions: read-out: IC50_Mean
[2] = biological target: T1, Polyadenylate-binding protein 1; test: PABP1 MLLE–PAM2 binding inhibitor potency, dose response, biochemical, fluorescence polarization, FITC-PAM2 peptide (AID 602259); format: functional; conditions: read-out: IC50_Mean
Cytochrome P450 3A4 = Cytochrome P450 3A4 (Homo sapiens, UniProt P08684);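 further: CYP3A4 tested as one member of a cytochrome P450 panel screen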
Cytochrome P450 2C9 = Cytochrome P450 2C9 (Homo sapiens, UniProt P11712)
Cytochrome P450 2C19 = Cytochrome P450 2C19 (Homo sapiens, UniProt P33261); test: Cytochrome panel assay with activity outcomes. Panel member name: p450-cyp2c19 Compounds with AC50 equal or less than 10 uM are considered active; format: functional; conditions: read-out: AC50
HEK293 = test: cells; conditions: Homo sapiens;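 further: cells exposed to compound for 14 hours overnight before viability readout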
Tumor necrosis factor = Tumor necrosis factor (Homo sapiens, UniProt P01375); test: TNFa-triggered NF-kB activation inhibitors, SAR follow-up, cell-based, revised (AID 2337); format: functional
[3] = biological target: T2, Short transient receptor potential channel 4 (Mus musculus, UniProt Q9QUQ5); test: mouse TRPC4 channel inhibitors, dose response, cell-based, HEK293 TRPC4/mu-opioid, Fluo-4 calcium (AID 434942); format: functional;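 further: potency of inhibitors blocking the TRPC4 calcium response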
T2 sequence (Q9QUQ5 whole entry): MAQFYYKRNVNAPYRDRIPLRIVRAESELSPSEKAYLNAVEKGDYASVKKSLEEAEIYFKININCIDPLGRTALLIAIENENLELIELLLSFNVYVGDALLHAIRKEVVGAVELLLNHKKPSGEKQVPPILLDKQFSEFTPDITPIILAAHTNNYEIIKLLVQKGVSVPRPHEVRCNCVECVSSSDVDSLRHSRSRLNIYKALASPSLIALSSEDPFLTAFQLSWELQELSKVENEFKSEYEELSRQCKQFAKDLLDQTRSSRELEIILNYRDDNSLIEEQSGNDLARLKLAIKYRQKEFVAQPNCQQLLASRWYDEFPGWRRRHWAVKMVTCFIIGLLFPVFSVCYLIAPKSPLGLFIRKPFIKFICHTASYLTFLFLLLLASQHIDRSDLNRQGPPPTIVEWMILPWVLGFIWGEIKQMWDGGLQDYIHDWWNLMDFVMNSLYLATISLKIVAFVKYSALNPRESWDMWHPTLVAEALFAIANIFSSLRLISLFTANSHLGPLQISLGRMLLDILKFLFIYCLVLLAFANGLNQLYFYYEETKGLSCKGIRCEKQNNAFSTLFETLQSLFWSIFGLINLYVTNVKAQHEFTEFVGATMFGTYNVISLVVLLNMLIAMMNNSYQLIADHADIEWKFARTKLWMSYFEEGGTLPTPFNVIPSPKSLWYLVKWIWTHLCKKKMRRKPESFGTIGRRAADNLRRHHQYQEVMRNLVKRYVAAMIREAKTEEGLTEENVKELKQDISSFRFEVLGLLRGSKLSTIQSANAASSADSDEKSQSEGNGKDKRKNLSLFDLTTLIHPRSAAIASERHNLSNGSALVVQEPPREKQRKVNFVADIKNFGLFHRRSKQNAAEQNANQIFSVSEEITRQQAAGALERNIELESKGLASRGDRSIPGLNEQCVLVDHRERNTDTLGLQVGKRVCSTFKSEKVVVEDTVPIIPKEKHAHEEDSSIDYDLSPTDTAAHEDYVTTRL

[4] = intracellular Trypanosoma cruzi inhibitors in host cells – cell-based, plate reader, cherry-pick samples, set 3, dose response (AID 651818); format: functional;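 further: compounds incubated with infected cells for about four days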
[5] = inhibitors of clade B AD8 Env fusion, dose response, cell-based, cherry-pick (AID 652062); format: functional;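 further: luciferase signal from cell-cell fusion driven by HIV-1 clade B AD8 Env; potency is for inhibitors of fusion seen as a drop in luminescence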
[6] = CEM21 lymphoblast cell cytotoxicity, dose response, cytotoxicity control for viral fusion inhibitor project, CellTiter-Glo luminescence, cherry-picked (AID 652042); format: functional, cell-based;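 further: potency for signal decrease meaning cytotoxicity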
[7] = ZM109 Env clade C HIV-1 fusion inhibitors, dose response, HeLa effector, CEM target cells, luciferase, cherry-pick (AID 652058); format: functional, cell-based
[8] = inhibitors of HIV Env-driven cell fusion, dose response, cherry-pick (AID 652057); format: functional, cell-based
Streptokinase A = biological target: T3, Streptokinase A (Streptococcus pyogenes serotype M1, UniProt P10520); test: S. pyogenes streptokinase expression inhibitors, potency, dose response, plasminogen activation absorbance, OD405 (AID 1914); format: functional, Streptococcus pyogenes M1 GAS;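 further: secreted streptokinase activity via plasminogen activation per viability signal from cell pellet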
T3 sequence (P10520 whole entry): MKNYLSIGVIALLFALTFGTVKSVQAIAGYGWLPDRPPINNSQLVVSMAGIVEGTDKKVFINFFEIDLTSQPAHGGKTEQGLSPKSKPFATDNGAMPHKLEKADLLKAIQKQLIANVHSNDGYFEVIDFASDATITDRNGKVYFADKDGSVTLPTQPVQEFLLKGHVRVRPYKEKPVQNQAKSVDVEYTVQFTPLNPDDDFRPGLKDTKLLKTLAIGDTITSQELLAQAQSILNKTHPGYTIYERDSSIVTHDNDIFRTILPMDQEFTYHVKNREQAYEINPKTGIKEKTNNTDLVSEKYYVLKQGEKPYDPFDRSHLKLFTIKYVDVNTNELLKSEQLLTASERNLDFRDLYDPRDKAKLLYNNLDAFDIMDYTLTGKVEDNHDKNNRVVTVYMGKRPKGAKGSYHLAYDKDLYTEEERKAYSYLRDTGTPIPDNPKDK

[9] = off-target signal loss in HeLa-CEM21 co-culture – HeLa F-luc CTL cells, cherry-picked, counter-screen for HIV-1 Env fusion inhibitor project, dose response (AID 652040); format: functional, cell-based;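 further: potency for signal decrease marking cytotoxic or nonspecific inhibition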
[10] = tested on: Streptococcus sp. 'group A'; test: growth inhibition of control SK(-) GAS strain, dose response, counter-screen for streptokinase expression inhibitor project, luminescence, kanamycin, BacTiterGlo, confirmation (AID 1900); format: functional, organism-based
Streptococcus = test: Group A Streptococcus viability loss, dose response, counter-screen for streptokinase expression inhibitor project, luminescence, BacTiterGlo (AID 1915); format: functional, organism-based;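 further: potency for reduction of bacterial viability or growth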
Cytochrome P450 1A2 = biological target: T4, Cytochrome P450 1A2 (Homo sapiens, UniProt P05177);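 further: PubChem cytochrome P450 panel assay, CYP1A2 panel member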
T4 sequence (P05177 whole entry): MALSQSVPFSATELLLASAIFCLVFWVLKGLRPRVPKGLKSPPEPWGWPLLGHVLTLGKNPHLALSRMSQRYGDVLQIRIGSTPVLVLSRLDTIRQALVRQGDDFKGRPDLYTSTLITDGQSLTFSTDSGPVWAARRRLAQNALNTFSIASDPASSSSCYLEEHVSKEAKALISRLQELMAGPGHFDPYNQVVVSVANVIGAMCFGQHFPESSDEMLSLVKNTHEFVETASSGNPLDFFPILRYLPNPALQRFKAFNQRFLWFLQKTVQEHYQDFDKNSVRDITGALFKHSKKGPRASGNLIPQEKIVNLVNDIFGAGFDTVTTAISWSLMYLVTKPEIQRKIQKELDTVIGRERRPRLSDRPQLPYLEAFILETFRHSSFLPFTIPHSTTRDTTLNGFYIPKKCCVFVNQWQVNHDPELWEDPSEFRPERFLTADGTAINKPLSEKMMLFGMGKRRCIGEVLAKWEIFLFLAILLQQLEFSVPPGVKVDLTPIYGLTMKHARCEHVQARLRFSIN

T1 sequence (P11940 whole entry): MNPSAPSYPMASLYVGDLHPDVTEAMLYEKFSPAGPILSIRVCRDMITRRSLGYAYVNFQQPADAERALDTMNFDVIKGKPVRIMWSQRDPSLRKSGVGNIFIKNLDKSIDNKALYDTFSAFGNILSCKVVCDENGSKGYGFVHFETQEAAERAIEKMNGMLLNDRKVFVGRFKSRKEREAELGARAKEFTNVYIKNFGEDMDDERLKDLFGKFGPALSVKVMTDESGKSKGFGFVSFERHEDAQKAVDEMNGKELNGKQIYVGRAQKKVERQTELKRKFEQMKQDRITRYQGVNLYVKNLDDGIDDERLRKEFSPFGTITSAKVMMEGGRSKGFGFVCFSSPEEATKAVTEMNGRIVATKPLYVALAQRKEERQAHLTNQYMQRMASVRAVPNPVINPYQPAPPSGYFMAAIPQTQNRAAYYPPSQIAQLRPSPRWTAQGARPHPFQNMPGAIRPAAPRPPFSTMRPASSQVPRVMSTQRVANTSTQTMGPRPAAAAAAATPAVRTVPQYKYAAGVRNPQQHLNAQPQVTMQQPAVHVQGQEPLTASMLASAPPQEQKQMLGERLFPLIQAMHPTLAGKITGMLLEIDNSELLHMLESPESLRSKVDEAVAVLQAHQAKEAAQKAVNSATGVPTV
Cytochrome P450 2C9, sequence (P11712 whole entry): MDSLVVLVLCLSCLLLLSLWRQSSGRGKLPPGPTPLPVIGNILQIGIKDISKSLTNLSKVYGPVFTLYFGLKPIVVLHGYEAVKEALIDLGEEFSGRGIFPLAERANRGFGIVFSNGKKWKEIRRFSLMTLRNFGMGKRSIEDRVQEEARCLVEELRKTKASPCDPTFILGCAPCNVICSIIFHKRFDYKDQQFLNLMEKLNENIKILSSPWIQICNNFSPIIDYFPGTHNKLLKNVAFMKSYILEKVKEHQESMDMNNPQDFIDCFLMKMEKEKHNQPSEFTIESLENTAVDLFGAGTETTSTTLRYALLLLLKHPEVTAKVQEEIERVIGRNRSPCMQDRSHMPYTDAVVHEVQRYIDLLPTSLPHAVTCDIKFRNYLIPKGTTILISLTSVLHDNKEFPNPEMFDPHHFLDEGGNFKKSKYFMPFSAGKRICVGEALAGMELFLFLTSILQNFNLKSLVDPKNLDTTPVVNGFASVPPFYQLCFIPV
Cytochrome P450 3A4, sequence (P08684 whole entry): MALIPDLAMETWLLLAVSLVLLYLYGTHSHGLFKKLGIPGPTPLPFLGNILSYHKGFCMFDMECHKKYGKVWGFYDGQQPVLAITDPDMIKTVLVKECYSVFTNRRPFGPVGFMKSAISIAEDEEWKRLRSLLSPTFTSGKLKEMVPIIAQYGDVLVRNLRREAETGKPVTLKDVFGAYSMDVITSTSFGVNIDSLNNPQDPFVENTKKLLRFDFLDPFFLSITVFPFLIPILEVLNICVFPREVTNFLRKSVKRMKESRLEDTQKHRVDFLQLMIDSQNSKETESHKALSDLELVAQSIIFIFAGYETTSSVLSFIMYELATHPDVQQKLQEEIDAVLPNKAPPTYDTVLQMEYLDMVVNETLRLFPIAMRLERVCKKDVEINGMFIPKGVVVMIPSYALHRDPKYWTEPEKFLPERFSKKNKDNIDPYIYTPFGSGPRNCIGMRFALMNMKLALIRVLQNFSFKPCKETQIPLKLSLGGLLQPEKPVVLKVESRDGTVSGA
Cytochrome P450 2C19, sequence (P33261 whole entry): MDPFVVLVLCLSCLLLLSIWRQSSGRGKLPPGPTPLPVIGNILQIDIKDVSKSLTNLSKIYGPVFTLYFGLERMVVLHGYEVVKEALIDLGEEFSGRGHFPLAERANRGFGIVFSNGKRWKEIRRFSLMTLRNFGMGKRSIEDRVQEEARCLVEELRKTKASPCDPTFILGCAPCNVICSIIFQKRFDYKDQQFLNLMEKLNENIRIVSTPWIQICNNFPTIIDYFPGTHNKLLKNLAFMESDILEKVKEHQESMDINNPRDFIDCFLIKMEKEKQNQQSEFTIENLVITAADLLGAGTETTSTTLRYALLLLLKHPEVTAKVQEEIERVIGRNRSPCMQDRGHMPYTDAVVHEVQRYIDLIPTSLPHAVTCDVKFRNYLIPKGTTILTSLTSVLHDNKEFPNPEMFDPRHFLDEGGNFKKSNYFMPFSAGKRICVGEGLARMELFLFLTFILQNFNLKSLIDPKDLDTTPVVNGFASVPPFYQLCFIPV
Tumor necrosis factor, sequence (P01375 whole entry): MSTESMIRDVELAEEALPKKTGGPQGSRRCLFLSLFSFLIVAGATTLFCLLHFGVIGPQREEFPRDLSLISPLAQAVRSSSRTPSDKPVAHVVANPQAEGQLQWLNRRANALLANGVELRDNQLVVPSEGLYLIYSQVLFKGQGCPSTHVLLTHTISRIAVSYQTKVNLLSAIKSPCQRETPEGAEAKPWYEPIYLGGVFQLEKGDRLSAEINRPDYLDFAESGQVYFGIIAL

Structure (SMILES): CN1CCN(C2=C(Cl)C(=O)N(CCc3ccccc3)C2=O)CC1
- IC50 [1]: > 66 µM (inactive)
- IC50 [2]: 49.1 µM (inactive)

Structure (SMILES): COc1ccc(S(=O)(=O)N2CCC[C@H]2C(=O)NC2=NCCS2)cc1
- AC50 (Cytochrome P450 3A4): 17.8 µM (inconclusive)
- AC50 (Cytochrome P450 2C9): inconclusive
- AC50 (Cytochrome P450 2C19): 35.5 µM (inconclusive)

Structure (SMILES): CC(=O)N1CCc2cc(S(=O)(=O)N3CCN(c4ccc(Cl)cc4)CC3)ccc21
- IC50 (HEK293): > 20 µM (inactive)
- IC50 (Tumor necrosis factor): > 20 µM (inactive)

Structure (SMILES): CCOC(=O)C1(Cc2cccc(OC)c2)CCN(Cc2ccc(OC)c(O)c2)CC1
- EC50 [3]: 0.944 µM (active)

Structure (SMILES): CC1(C)CC2=Nc3ccccc3NC(c3ccccc3F)C2=C(O)C1 (centres undefined)
- IC50 [1]: > 66 µM (inactive)
- IC50 [2]: > 66 µM (inactive)

Structure (SMILES): Cc1noc(C)c1S(=O)(=O)Nc1ccc2c(c1)CC(=O)N([C@H](C)CO)C[C@@H](C)[C@@H](CN(C)Cc1ccc(C(=O)Nc3ccccc3N)cc1)O2
- AC50 [4]: 3.1 µM (active)

Structure (SMILES): Cc1noc(C)c1S(=O)(=O)Nc1ccc2c(c1)CC(=O)N([C@H](C)CO)C[C@@H](C)[C@H](CN(C)Cc1ccc(Cl)c(Cl)c1)O2
- AC50 [4]: 6.32 µM (active)

Structure (SMILES): Cc1ccc(S(=O)(=O)Nc2ccc3c(c2)CC(=O)N([C@@H](C)CO)C[C@@H](C)[C@@H](CN(C)Cc2ccc(-c4ccccc4)cc2)O3)cc1
- AC50 [4]: 3.03 µM (active)

Structure (SMILES): C[C@H]1CN([C@@H](C)CO)C(=O)c2cccc(NS(=O)(=O)c3ccccc3)c2O[C@H]1CN(C)Cc1ccc(Oc2ccccc2)cc1
- AC50 [4]: 6.61 µM (active)

Structure (SMILES): C[C@@H]1CCCCO[C@H](CN(C)CC2CCCCC2)[C@@H](C)CN([C@H](C)CO)C(=O)c2cc(NC(=O)Nc3ccc(F)cc3)ccc2O1
- AC50 [4]: 2.33 µM (active)

Structure (SMILES): COc1ccc(CNC(=O)N(C)C[C@H]2OCc3ccccc3-c3c(n(C)c4ccccc34)C(=O)N([C@H](C)CO)C[C@@H]2C)cc1
- AC50 [5]: < 0.26 µM (active)
- AC50 [6]: 60.8 µM (active)
- AC50 [7]: < 0.26 µM (active)
- AC50 [8]: < 0.26 µM (active)

Structure (SMILES): CN1CC(c2ccc(Cl)c(Cl)c2)[C@@]2(COc3ccccc3C2=O)[C@@]12C(=O)Nc1ccccc12 (some centres undefined)
- AC50 [5]: 31.3 µM (active)
- AC50 [6]: 45.7 µM (active)
- EC50 (Streptokinase A): 1.55 µM (active)
- AC50 [9]: 14.7 µM (active)
- AC50 [7]: 9.1 µM (active)
- AC50 [8]: 9.06 µM (active)
- EC50 [10]: 2.96 µM (active)
- EC50 (Streptococcus): > 150 µM (not active)

Structure (SMILES): COc1ccc(CNc2ncnc3ccc(-c4ccccc4CN(C)C)cc23)c(OC)c1
- AC50 (Cytochrome P450 1A2): 31.6 µM (inconclusive)
- AC50 (Cytochrome P450 2C9): inconclusive
